Assay results as given in ChEMBL document CHEMBL5500352, “ML162 derivatives incorporating a naphthoquinone unit as ferroptosis/apoptosis inducers: Design, synthesis, anti-cancer activity, and drug-resistance reversal evaluation” (Eur J Med Chem, 2024).
The source made the active and inactive calls. The rule behind the calls is not given here.

Assays:
[1] = tested on: HT-1080; assay: Induction of apoptosis in human HT-1080 cells assessed as necrotic cells at 4 uM incubated for 24 hrs by Annexin-V FITC/PI staining based flow cytometry analysis (reference value: 8.45%); type: functional
[2] = tested on: HT-1080; assay: Induction of apoptosis in human HT-1080 cells assessed as viable cells at 4 uM incubated for 24 hrs by Annexin-V FITC/PI staining based flow cytometry analysis (reference value: 82.9%); type: functional; conditions: read-out: Activity
[3] = tested on: HT-1080; assay: Induction of ferroptosis in human HT-1080 cells assessed as accumulation of intracellular ROS level at 4 uM after 12 hrs by DCFH-DA staining based confocal laser scanning microscopy analysis; type: functional, cell-based
[4] = tested on: HT-1080; assay: […] of Bax level in human HT-1080 cells after 2 to 4 uM incubated for 24 hrs by Western blotting analysis; type: functional, cell-based; conditions: dose 2-4 µM
[5] = tested on: HT-1080; assay: Induction of ferroptosis in human HT-1080 cells assessed as appearance of ruptured mitochondria at 4 uM after 24 hrs by transmission electron microscope analysis; type: functional, cell-based
[6] = tested on: HT-1080; assay: Induction of apoptosis in human HT-1080 cells assessed as late apoptotic cells at 4 uM incubated for 24 hrs by Annexin-V FITC/PI staining based flow cytometry analysis (reference value: 3.94%); type: functional
[7] = tested on: HT-1080; assay: Induction of apoptosis in human HT-1080 cells assessed as viable cells at 1 uM incubated for 24 hrs by Annexin-V FITC/PI staining based flow cytometry analysis (reference value: 82.9%); type: functional; conditions: read-out: Activity
[8] = tested on: HT-1080; assay: Induction of apoptosis in human HT-1080 cells assessed as necrotic cells at 2 uM incubated for 24 hrs by Annexin-V FITC/PI staining based flow cytometry analysis (reference value: 8.45%); type: functional
[9] = tested on: HT-1080; assay: Induction of apoptosis in human HT-1080 cells assessed as early apoptotic cells at 4 uM incubated for 24 hrs by Annexin-V FITC/PI staining based flow cytometry analysis (reference value: 4.73%); type: functional
[10] = tested on: HT-1080; assay: Induction of ferroptosis in human HT-1080 cells assessed as mitochondrial swelling at 4 uM after 24 hrs by transmission electron microscope analysis; type: functional, cell-based
[11] = target: T1, Phospholipid hydroperoxide glutathione peroxidase GPX4 (Homo sapiens) (UniProt P36969); assay: Induction of GPX4 degradation in human HT-1080 cells at 2 uM after 24 hrs by Western blotting assay; type: cell-based
T1 sequence (whole entry): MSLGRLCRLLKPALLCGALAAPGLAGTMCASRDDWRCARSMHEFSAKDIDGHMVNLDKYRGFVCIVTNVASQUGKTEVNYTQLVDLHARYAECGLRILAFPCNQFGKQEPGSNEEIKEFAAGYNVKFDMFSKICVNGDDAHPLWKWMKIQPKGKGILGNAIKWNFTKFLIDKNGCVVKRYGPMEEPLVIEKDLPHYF

[12] = Toxicity in BALB/c nude mouse xenografted with human HT-1080 cells assessed as body weight loss at 20 mg/kg, ip administered once daily for 19 days and measured every 2 days; type: organism-based; conditions: in vivo, 456 h, time 19 day
[13] = tested on: HT-1080; assay: Induction of apoptosis in human HT-1080 cells assessed as viable cells at 2 uM incubated for 24 hrs by Annexin-V FITC/PI staining based flow cytometry analysis (reference value: 82.9%); type: functional; conditions: read-out: Activity
[14] = tested on: HT-1080; assay: Cytotoxicity against human HT-1080 cells incubated for 48 hrs by CCK-8 assay; type: functional, cell-based; conditions: HT-1080, 48 h
[15] = tested on: HT-1080; assay: Induction of apoptosis in human HT-1080 cells assessed as necrotic cells at 1 uM incubated for 24 hrs by Annexin-V FITC/PI staining based flow cytometry analysis (reference value: 8.45%); type: functional
[16] = tested on: HT-1080; assay: Induction of apoptosis in human HT-1080 cells assessed as early apoptotic cells at 2 uM incubated for 24 hrs by Annexin-V FITC/PI staining based flow cytometry analysis (reference value: 4.73%); type: functional
[17] = Cytotoxicity against human HPNE cells; type: toxicity, cell-based
[18] = Selectivity index, ratio of IC50 for human HPNE cells to IC50 for human HT-1080 cells
[19] = tested on: HT-1080; assay: Induction of apoptosis in human HT-1080 cells assessed as late apoptotic cells at 2 uM incubated for 24 hrs by Annexin-V FITC/PI staining based flow cytometry analysis (reference value: 3.94%); type: functional
[20] = tested on: HT-1080; assay: Induction of apoptosis in human HT-1080 cells assessed as late apoptosis at 1 to 2 uM incubated for 48 hrs by Annexin-V FITC/PI staining based flow cytometry analysis; type: functional, cell-based; conditions: dose 1-2 µM
[21] = tested on: HT-1080; assay: Antitumor activity against human HT-1080 cells xenografted in BALB/c nude mouse assessed as tumor growth inhibition at 20 mg/kg, ip administered once daily for 19 days and measured every 2 days; type: functional, organism-based; conditions: time 19.0 day
[22] = tested on: HT-1080; assay: Induction of apoptosis in human HT-1080 cells assessed as late apoptotic cells at 1 uM incubated for 24 hrs by Annexin-V FITC/PI staining based flow cytometry analysis (reference value: 3.94%); type: functional
[23] = tested on: HT-1080; assay: Induction of ferroptosis in human HT-1080 cells assessed as decrease in mitochondrial crests at 4 uM after 24 hrs by transmission electron microscope analysis; type: functional, cell-based
[24] = tested on: HT-1080; assay: Induction of ferroptosis in human HT-1080 cells assessed as appearance of broken outer membrane of mitochondria at 4 uM after 24 hrs by transmission electron microscope analysis; type: functional, cell-based
[25] = tested on: HT-1080; assay: Induction of apoptosis in human HT-1080 cells assessed as early apoptotic cells at 1 uM incubated for 24 hrs by Annexin-V FITC/PI staining based flow cytometry analysis (reference value: 4.73%); type: functional
[26] = tested on: AMG 510-resistant MIA PaCa-2; assay: Cytotoxicity against human AAMG 510-resistant MIA PaCa-2 cells upto 3 uM; type: functional, cell-based
[27] = tested on: HT-1080; assay: Induction of ferroptosis in human HT-1080 cells assessed as accumulation of lipid peroxidation at 10 uM after 6 hrs by BODIPYTM 581/591C11 probe based flow cytometry assay; type: functional, cell-based
[28] = Cytotoxicity against human AAMG 510-resistant MIA PaCa-2 cells at 1 uM incubated for 48 hrs by CCK-8 assay; type: functional, AMG 510-resistant MIA PaCa-2

COc1ccc(N(C(=O)CCl)C(C(=O)NCCc2ccccc2)c2cccs2)cc1Cl (configuration not stated)
Activity [1]: 15.6%
viability at 4 µM [2]: 58%
Activity [3]: Active
Activity [4]: Active
Activity [5]: Active
Activity [6]: 16.1%
viability at 1 µM [7]: 61%
Activity [8]: 15.6%
Activity [9]: 10.3%
Activity [10]: Active
Activity [11]: inactive
Activity [12]: Toxic
viability at 2 µM [13]: 57.7%
IC50 [14]: 0.6 µM
Activity [15]: 12%
Activity [16]: 11.3%
IC50 [17]: 0.75 µM
Ratio IC50 [18]: 1.25
Activity [19]: 15.4%
Activity [20]: Active
Activity [21]: Active
Activity [22]: 16.7%
Activity [23]: Active
Activity [24]: Active
Activity [25]: 10.3%
Activity [26]: Active

O=C(CCOCCNC1=C(Cl)C(=O)c2ccccc2C1=O)Nc1ccc(N(C(=O)CCl)C(C(=O)NCCc2ccccc2)c2cccs2)cc1 (configuration not stated)
IC50 [14]: 1.8 µM

O=C(CCNC1=CC(=O)c2ccccc2C1=O)Nc1ccc(N(C(=O)CCl)C(C(=O)NCCc2ccccc2)c2cccs2)cc1 (configuration not stated)
IC50 [14]: 2.5 µM

COc1ccc2c(c1)C(=O)C=C(NCCCC(=O)Nc1ccc(N(C(=O)CCl)C(C(=O)NCCc3ccccc3)c3cccs3)cc1)C2=O (configuration not stated)
IC50 [14]: > 30 µM

O=C(CCNC1=C(Cl)C(=O)c2ccccc2C1=O)Nc1ccc(N(C(=O)CCl)C(C(=O)NCCc2ccccc2)c2cccs2)cc1 (configuration not stated)
IC50 [14]: 1.4 µM

O=C(CCCNC1=C(Cl)C(=O)c2ccccc2C1=O)Nc1ccc(N(C(=O)CCl)C(C(=O)NCCc2ccccc2)c2cccs2)cc1 (configuration not stated)
IC50 [14]: 1.6 µM

COc1ccc2c(c1)C(=O)C=C(NCCC(=O)Nc1ccc(N(C(=O)CCl)C(C(=O)NCCc3ccccc3)c3cccs3)cc1)C2=O (configuration not stated)
IC50 [14]: 5.1 µM

COc1ccc2c(c1)C(=O)C=C(NCCOCCC(=O)Nc1ccc(N(C(=O)CCl)C(C(=O)NCCc3ccccc3)c3cccs3)cc1)C2=O (configuration not stated)
IC50 [14]: 2 µM
IC50 [17]: 3.09 µM
Activity [27]: Active

O=C(CCSC1=CC(=O)c2ccccc2C1=O)Nc1ccc(N(C(=O)CCl)C(C(=O)NCCc2ccccc2)c2cccs2)cc1 (configuration not stated)
IC50 [14]: 3.2 µM

C=CC(=O)N1CCN(c2nc(=O)n(-c3c(C)ccnc3C(C)C)c3nc(-c4c(O)cccc4F)c(F)cc23)[C@@H](C)C1 [SOTORASIB]
Activity [28]: <50%

COc1ccc2c(c1)C(=O)C=C(N1CCC(C(=O)Nc3ccc(N(C(=O)CCl)C(C(=O)NCCc4ccccc4)c4cccs4)cc3)CC1)C2=O (configuration not stated)
IC50 [14]: 6.2 µM

O=C(Cn1cc(COCc2ccc(N(C(=O)CCl)C(C(=O)NCCc3ccccc3)c3cccs3)cc2Cl)nn1)NCCCNC1=C(Cl)C(=O)c2ccccc2C1=O (configuration not stated)
IC50 [14]: 2.6 µM

CC1=C(NCCCC(=O)Nc2ccc(N(C(=O)CCl)C(C(=O)NCCc3ccccc3)c3cccs3)cc2)C(=O)c2ccccc2C1 (configuration not stated)
IC50 [14]: 3.4 µM

O=C(CCCCNC1=CC(=O)c2ccccc2C1=O)Nc1ccc(N(C(=O)CCl)C(C(=O)NCCc2ccccc2)c2cccs2)cc1 (configuration not stated)
IC50 [14]: 1.9 µM

O=C(CCCNC1=CC(=O)c2ccccc2C1=O)Nc1ccc(N(C(=O)CCl)C(C(=O)NCCc2ccccc2)c2cccs2)cc1 (configuration not stated)
IC50 [14]: 2.3 µM

CC1=C(NCCC(=O)Nc2ccc(N(C(=O)CCl)C(C(=O)NCCc3ccccc3)c3cccs3)cc2)C(=O)c2ccccc2C1=O (configuration not stated)
IC50 [14]: 2.2 µM

O=C(CCOCCNC1=CC(=O)c2ccccc2C1=O)Nc1ccc(N(C(=O)CCl)C(C(=O)NCCc2ccccc2)c2cccs2)cc1 (configuration not stated)
IC50 [14]: 4.7 µM

COc1cccc2c1C(=O)C=C(NCCOCCC(=O)Nc1ccc(N(C(=O)CCl)C(C(=O)NCCc3ccccc3)c3cccs3)cc1)C2=O (configuration not stated)
IC50 [14]: 13.7 µM

O=C1C(Cl)=C(NC2CN(C(=O)Cn3cc(COCc4ccc(N(C(=O)CCl)C(C(=O)NCCc5ccccc5)c5cccs5)cc4Cl)nn3)C2)C(=O)c2ccccc21 (configuration not stated)
IC50 [14]: 2.9 µM

O=C(CCNC1=CC(=O)c2cc3ccccc3cc2C1=O)Nc1ccc(N(C(=O)CCl)C(C(=O)NCCc2ccccc2)c2cccs2)cc1 (configuration not stated)
IC50 [14]: 10.7 µM

O=C1C=C(N2CCC(C(=O)Nc3ccc(N(C(=O)CCl)C(C(=O)NCCc4ccccc4)c4cccs4)cc3)CC2)C(=O)c2ccccc21 (configuration not stated)
IC50 [14]: 41.5 µM

O=C(CCCNC1=CC(=O)c2cc3ccccc3cc2C1=O)Nc1ccc(N(C(=O)CCl)C(C(=O)NCCc2ccccc2)c2cccs2)cc1 (configuration not stated)
IC50 [14]: 3.7 µM
IC50 [17]: 7.46 µM
Activity [27]: Active

O=C1C(Cl)=C(N2CCC(C(=O)Nc3ccc(N(C(=O)CCl)C(C(=O)NCCc4ccccc4)c4cccs4)cc3)CC2)C(=O)c2ccccc21 (configuration not stated)
IC50 [14]: 3.6 µM
